# Assay results published in US20150368617A1, “METHOD FOR FORMING ENDOTHELIAL CELLS” (Korea Advanced Institute of Science and Technology (KAIST), priority 2012, published 2015).
# Tested on: ICAM2+ ECs
# Test: Expansion of purified ICAM2+ ECs for 2 days in 2D Matrigel system
# Assay type: cell-based, mouse
# Description: FIGS. 14A-14G. ROCK suppression continuously promotes the expansion of ECs. (FIG. 14A) ICAM2+ ECs were further incubated with PBS (Control), Y27632 (10┌ M), VEGF-A (50 ng/ml; VA) or Y27632 (10┌ M) plus VEGF-A (50 ng/ml) for 2 days, and analyses were performed at day 8.5. (FIG. 14B) Immunofluorescence images showing CD144+ EC colonies, ┌ SMA+MCs, and DAPI+ nuclei. Scale bars represent 100┌ m. (FIG. 14C) Representative FACS analysis of CD31+/CD144+ ECs. (FIG. 14D) % of CD31+/CD144+ EC population. Each group, n=3. *p<0.01 versus Control. (FIG. 14E) Relative cell number of ICAM2+ ECs. Each group, n=3. *p<0.01 versus Control; ^#p<0.01 versus VEGF-A. (FIG. 14F) Relative population of CD31+/CD144+ ECs. Population of CD31+/CD144+ ECs grown without VEGF-A and Y27632 was regarded as 100%. Each group, n=3. *p<0.01 versus Control; ^#p<0.01 versus VEGF-A. (FIG. 14G) % of adherent ICAM2+ECs onto plate at 6 hrs. Each group, n=3. *p<0.05 versus VEGF-A.
# E14tg2a ESC cell line was a generous gift from Dr. Jun K. Yamashita (Kyoto University), and R1 ESC cell line was purchased from American Type Cell Culture. Mouse iPSC derived from FVB strain was a generous gift from Drs. Hyun-Jai Cho and Hyo-Soo Kim (Seoul National University Hospital). […]
smiles,measurement,setting,value
C[C@@H](N)[C@H]1CC[C@H](C(=O)Nc2ccncc2)CC1 [Y27632],decrease of CD31+/CD144+ EC population from the initial population of ˜90%,"day 8.5, agent alone, ˜30% without either agent",~22%
same,increase of total cell number,"day 8.5, compared to Control without VEGF-A and Y27632",~1.8 fold
